Calls of active or inactive are those of the source. No cut-off for these calls is given here.
Assays:
[1] = test system: HCT-116; assay: Cytotoxicity against human HCT-116 cells assessed as inhibition of cell growth measured after 72 hrs by MTT assay; type: functional, cell-based; settings: HCT-116, 72 h
[2] = test system: A549; assay: Cytotoxicity against human A549 cells assessed as inhibition of cell growth at 20 uM measured after 72 hrs by MTT assay relative to control; type: functional
[3] = target: TAK1-TAB1 fusion protein (Homo sapiens, UniProt O43318); assay: Inhibition of Tak1/Tab1 (unknown origin) assessed as inhibition of Tak1 kinase activity preincubated for 30 mins followed by addition of MBP protein and ATP and measured after 2 hrs by ADP-Glo kinase assay
Chain of TAK1-TAB1 fusion protein (O43318 whole entry, looked up, the tested form may be a part): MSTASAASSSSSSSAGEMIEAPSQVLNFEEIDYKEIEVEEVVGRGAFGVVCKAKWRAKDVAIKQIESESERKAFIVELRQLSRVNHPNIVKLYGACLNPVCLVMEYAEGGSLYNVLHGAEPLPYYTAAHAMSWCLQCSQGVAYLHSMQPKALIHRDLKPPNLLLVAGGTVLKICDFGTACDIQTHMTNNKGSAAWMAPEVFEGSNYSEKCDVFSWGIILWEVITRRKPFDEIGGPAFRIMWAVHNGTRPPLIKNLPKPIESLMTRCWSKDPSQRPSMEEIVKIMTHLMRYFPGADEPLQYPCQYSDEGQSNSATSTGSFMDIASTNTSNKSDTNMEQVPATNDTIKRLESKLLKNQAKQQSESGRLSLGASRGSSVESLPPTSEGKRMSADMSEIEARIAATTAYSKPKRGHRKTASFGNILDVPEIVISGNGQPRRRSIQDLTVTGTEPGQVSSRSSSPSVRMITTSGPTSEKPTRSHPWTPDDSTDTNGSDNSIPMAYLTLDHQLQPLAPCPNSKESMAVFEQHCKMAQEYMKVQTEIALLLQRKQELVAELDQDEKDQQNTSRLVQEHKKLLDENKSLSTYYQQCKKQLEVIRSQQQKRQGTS

[4] = test system: A549; assay: Cell cycle arrest in human A549 cells assessed as accumulation at S phase at 1.2 uM measured after 24 hrs by PI staining based Flow cytometry method (reference value: 34.24%); type: functional
[5] = test system: A549; assay: Induction of apoptosis in human A549 cells assessed as viable cells at 0.6 uM measured by annexinV-FITC/propidium iodide staining based flow cytometry analysis (reference value: 97.8%); type: functional; settings: read-out: Activity
[6] = test system: A549; assay: Induction of apoptosis in human A549 cells assessed as necrotic cells at 0.6 uM measured by annexinV-FITC/propidium iodide staining based flow cytometry analysis (reference value: 0.42%); type: functional
[7] = test system: A549; assay: Induction of apoptosis in human A549 cells assessed as late apoptotic cells at 1.2 uM measured by annexinV-FITC/propidium iodide staining based flow cytometry analysis (reference value: 0.64%); type: functional
[8] = test system: HCT-116; assay: Induction of apoptosis in human HCT-116 cells assessed as early apoptotic cells at 1.8 uM measured by annexinV-FITC/propidium iodide staining based flow cytometry analysis; type: functional
[9] = target: T1, Nuclear factor NF-kappa-B complex (Homo sapiens) (UniProt Q00653+P19838+Q04206); assay: Inhibition of human NF-kB in human HCT-116 cells assessed as suppression of TNF-alpha induced p-65 phosphorylation at 0.5 to 5 uM pretreated with compounds for 24 hrs followed by TNF-alpha stimulation for 10 mins by Western blot analysis; type: cell-based; settings: dose 0.5-5 µM, time 1450.0 min
T1 sequence (P19838 whole entry, looked up): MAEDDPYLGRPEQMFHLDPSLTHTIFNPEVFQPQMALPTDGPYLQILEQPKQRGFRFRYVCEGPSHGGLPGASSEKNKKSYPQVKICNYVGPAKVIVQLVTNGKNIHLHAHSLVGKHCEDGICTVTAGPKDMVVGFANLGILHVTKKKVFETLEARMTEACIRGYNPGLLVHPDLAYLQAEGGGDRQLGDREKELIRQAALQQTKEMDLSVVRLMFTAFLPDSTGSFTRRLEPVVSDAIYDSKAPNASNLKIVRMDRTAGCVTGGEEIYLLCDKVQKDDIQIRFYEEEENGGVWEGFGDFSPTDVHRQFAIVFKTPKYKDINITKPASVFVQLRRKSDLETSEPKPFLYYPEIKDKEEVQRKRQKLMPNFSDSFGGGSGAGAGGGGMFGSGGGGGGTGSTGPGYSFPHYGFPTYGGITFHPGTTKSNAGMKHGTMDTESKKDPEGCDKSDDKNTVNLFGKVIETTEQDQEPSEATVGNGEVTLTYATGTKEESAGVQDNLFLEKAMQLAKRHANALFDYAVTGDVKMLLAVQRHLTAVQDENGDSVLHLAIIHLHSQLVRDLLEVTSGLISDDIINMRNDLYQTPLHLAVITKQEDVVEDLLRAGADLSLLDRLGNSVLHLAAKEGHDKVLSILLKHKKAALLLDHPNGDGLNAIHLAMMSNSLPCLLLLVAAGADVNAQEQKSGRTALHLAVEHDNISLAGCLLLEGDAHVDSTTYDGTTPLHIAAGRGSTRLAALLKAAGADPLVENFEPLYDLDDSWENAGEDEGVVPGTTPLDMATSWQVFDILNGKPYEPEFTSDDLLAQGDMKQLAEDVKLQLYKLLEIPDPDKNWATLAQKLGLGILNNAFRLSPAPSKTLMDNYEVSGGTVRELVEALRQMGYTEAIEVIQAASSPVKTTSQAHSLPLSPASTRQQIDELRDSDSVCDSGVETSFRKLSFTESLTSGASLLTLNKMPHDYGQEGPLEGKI
T1 sequence (Q00653 whole entry, looked up): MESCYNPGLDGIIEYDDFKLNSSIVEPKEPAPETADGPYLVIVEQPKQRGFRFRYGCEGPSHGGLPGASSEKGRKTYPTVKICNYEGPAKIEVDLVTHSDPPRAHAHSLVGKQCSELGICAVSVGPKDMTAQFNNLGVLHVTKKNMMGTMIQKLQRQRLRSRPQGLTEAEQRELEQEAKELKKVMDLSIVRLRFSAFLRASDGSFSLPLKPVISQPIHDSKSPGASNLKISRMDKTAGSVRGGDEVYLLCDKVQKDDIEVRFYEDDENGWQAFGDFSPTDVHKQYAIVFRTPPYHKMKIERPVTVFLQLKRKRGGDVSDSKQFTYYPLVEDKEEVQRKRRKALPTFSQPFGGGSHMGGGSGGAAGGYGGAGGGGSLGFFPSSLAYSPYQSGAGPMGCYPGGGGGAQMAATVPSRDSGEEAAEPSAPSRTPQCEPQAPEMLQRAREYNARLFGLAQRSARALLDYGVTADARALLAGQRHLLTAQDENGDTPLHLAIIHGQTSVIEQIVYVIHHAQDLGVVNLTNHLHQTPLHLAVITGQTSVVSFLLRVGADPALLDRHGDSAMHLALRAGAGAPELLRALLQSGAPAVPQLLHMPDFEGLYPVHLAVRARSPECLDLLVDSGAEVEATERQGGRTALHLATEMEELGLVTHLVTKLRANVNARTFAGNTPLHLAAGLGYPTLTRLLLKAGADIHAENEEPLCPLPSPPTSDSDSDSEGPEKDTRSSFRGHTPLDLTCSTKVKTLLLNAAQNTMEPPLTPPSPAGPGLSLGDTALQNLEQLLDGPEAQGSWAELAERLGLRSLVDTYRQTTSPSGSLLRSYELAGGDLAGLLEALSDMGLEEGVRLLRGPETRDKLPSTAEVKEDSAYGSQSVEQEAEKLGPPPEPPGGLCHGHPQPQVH
T1 sequence (Q04206 whole entry, looked up): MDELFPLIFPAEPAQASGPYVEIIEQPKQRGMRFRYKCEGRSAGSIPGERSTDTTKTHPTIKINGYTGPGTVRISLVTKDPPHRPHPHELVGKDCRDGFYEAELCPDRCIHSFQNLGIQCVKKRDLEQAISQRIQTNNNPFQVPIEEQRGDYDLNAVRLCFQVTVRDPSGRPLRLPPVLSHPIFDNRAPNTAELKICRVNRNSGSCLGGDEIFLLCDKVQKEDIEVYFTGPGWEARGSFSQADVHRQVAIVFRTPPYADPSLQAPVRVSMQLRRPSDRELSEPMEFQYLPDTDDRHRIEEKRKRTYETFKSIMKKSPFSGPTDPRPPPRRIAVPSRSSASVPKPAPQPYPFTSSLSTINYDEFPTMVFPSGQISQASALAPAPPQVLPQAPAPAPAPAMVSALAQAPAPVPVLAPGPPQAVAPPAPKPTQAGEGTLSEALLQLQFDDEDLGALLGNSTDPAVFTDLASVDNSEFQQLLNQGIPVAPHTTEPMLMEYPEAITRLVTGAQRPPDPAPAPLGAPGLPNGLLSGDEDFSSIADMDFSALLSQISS

[10] = target: T1, Nuclear factor NF-kappa-B complex (Homo sapiens); assay: Inhibition of human NF-kB in human HCT-116 cells assessed as suppression of TNF-alpha induced IkBalpha expression at 0.5 to 5 uM pretreated with compounds for 24 hrs followed by TNF-alpha stimulation for 10 mins by Western blot analysis; type: cell-based; settings: dose 0.5-5 µM, time 1450.0 min

SMILES: CNC(=O)c1cc(Oc2ccc(Nc3nccc(N4CCCCC4)n3)cc2)ccn1
- IC50 [1]: 540 nM
- inhibition at 20 µM [2]: 63.4%
- IC50 [3]: 580 nM
- Activity [4]: 18.83%
- viability at 0.6 µM [5]: 87.6%
- Activity [6]: 0.75%
- Activity [7]: 5.7%
- Activity [8]: 71.4%
- inhibition [9]: Active
- inhibition [10]: Active
